Reference: US20050090522A1 (priority 2001, published 2005)
Where two headings read alike, the source gives them in different places.

Columns and labels:
[1] = Metabolic stability in pooled human liver microsomes (HLM); conditions: 3 μM drug
Experimental: Metabolic Stability Studies of compounds in Liver Microsomes. The metabolic stability of compounds were investigated in pooled liver microsomes from humans. The human liver microsomes were obtained from BD Gentest (Lot #16, Woburn, Mass.) with a protein concentration of 20 mg/ml and a total cytochrome P450 (CYP) concentration of 0.55 nmol/mg protein. A stock solution of drug was prepared in acetonitrile at 1 mM. […] The incubation media consisted of potassium phosphate buffer (0.1 M, pH 7.4), liver microsomes (final concentration 0.9 mg/ml), magnesium chloride (0.033 mM), and a NADPH-regenerating system. […] The test compound was pre-incubated in the media for 2 min. The reaction was initiated by the addition of the cofactors. The incubation was carried out at 37° C. for 10 min. The reaction was terminated by drawing an aliquot of 100 μL from the incubation and adding into 200 μL of acetonitrile containing a reference compound as an […] analytical standard. Following vortex-mixing and centrifugation, an aliquot of 10 μL of the supernatant was analyzed by LC/MS.
GUIDELINES can be used to categorized test substances as low, intermediate or highly cleared compounds.
(§1) For accuracy, the determined measure of viral inhibition is an EC50; but the minimum plasma concentrations which should be maintained in a patient is generally believed to be at least four or five fold higher. […] Lower is better. • 4) Estimating potential exposure in man by measuring parameters such as AUC and rate of clearance by oral and iv dosing in rats. High exposure and low clearance was desired.
The stability of compounds were also evaluated to determine metabolic stability when incubated in in vitro preparations of human liver microsomes (HLM). This is one commonly used predictive system for evaluating the potential for human metabolism and projecting clearance rates in man. Compounds with low clearance rates were most desireable.

HeLa cells = assay: Cytotoxicity assay in HeLa cells (MTT dye reduction, CC50)
Experimental: • Virus production—Human embryonic Kidney cell line, 293, propagated in Dulbecco's Modified Eagle Medium (Life Technologies, Gaithersburg, Md.) containing 10% fetal Bovine serum (FBS, Sigma, St. Louis, Mo.). • Virus infection—Human epithelial cell line, HeLa, expressing the HIV-1 receptors CD4 and CCR^5 was propagated in Dulbecco's Modified Eagle Medium (Life Technologies, Gaithersburg, Md.) containing 10% fetal Bovine serum (FBS, Sigma, St. Louis, Mo.) and supplemented with 0.2 mg/mL Geneticin (Life Technologies, Gaithersburg, Md.) and 0.4 mg/mL Zeocin (Invitrogen, Carlsbad, Calif.). […] Transfections were performed using lipofectAMINE PLUS reagent as described by the manufacturer (Life Technologies, Gaithersburg, Md.). Experiment • 1. Compound was added to HeLa CD4 CCR5 cells plated in 96 well plates at a cell density of 5×10^4 cells per well in 100 μl Dulbecco's Modified Eagle Medium containing 10% fetal Bovine serum at a concentration of […]. • 2. 100 μl of single-round infectious reporter virus in Dulbecco's Modified Eagle Medium was then added to the plated cells and compound at an approximate multiplicity of infection (MOI) of 0.01, resulting in a final volume of 200 μl per well and a final compound concentration of <10 μM. • 3. Samples were harvested 72 h after infection. • 4. Viral infection was monitored by measuring luciferase expression from viral DNA in the infected cells using a luciferase reporter gene assay kit (Roche Molecular Biochemicals, Indianapolis, Ind.). Infected cell supernatants were removed and 50 μl of Dulbecco's Modified Eagle Medium (without phenol red) and 50 μl of luciferase assay reagent reconstituted as described by the manufacturer (Roche Molecular Biochemicals, Indianapolis, Ind.) was added per well. Luciferase activity was then quantified by measuring luminescence using a Wallac microbeta scintillation counter. • 5. […] An EC50 provides a method for comparing the antiviral potency of the compounds of this invention. The effective concentration for fifty percent inhibition (EC50) was calculated with the Microsoft Excel Xlfit curve fitting software. For each compound, curves were generated from percent inhibition calculated at 10 different concentrations by using a four paramenter logistic model (model 205). Table 1 is the key for the data in Tables 2-4. Cytoxicity assays were conducted with the same HeLa using methodology well known in the art.
as §1

HIV-1 = HIV-1 single-round infectious luciferase reporter virus (pseudotype) assay in HeLa CD4 CCR5 cells; assay type: cell-based
Outline: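 HeLa CD4 CCR5 cells (5×10^4/well, DMEM + 10% FBS) were treated with compound (final <10 μM) and infected with single-round luciferase reporter virus made in 293 cells, at MOI ~0.01. Luciferase was read 72 h post infection. EC50 came from 10-concentration percent-inhibition curves fitted to a four-parameter logistic model.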

[2] = pooled human liver microsomes, Low/Intermediate/High
[3] = cytotoxicity, Yes = CC50 above 100 uM, No = not
[4] = Human immunodeficiency virus 1, HeLa-CD4/CCR5, read-out: EC50 Group from TABLE 1, HeLa CD4 CCR5 cells, single-round infectious luciferase reporter virus
[5] = Human immunodeficiency virus 1, HeLa-CD4/CCR5, read-out: EC50 category, HIV-1 single-round reporter virus assay, category 1/2/3 per Table A1 key
[6] = Human immunodeficiency virus 1, HeLa-CD4/CCR5, read-out: EC50 Group from Table 1, Table 2-1, HeLa CD4 CCR5 cells, single-round luciferase reporter virus

SMILES | HLM predicted human clearance class [1, 2] | CC50 > 100 uM (HeLa cells; [3]) | EC50 (HIV-1; [4]) [nM] | EC50 (HIV-1; [5]) [nM] | EC50 (HIV-1; [6]) [nM] | EC50 (HIV-1; Human immunodeficiency virus 1, HeLa-CD4/CCR5, 72 h, read-out: EC50 Group from Table 1, HeLa CD4 CCR5 cells, luciferase reporter virus, harvested 72 h after infection) [nM] | HLM predicted human clearance class ([1]; 0.9 mg/ml microsomes, 37° C., 10 min) | CC50 > 100 uM (HeLa cells; HeLa cells, six days with drug, MTT) | EC50 (HIV-1; Human immunodeficiency virus 1, HeLa-CD4/CCR5, read-out: EC50 category, initial pseudotype assay, key in Table A1) [nM]
O=C(C(=O)N1CCN(C(=O)c2ccccc2)CC1)c1c[nH]c2c(N3CCOCC3)ncc(F)c12 [Example 222] | Low (0-0.100) | Yes | < 1000 | 0.2 to 1000 | – | – | – | – | –
Cc1ccnn1-c1ncc(F)c2c(C(=O)C(=O)N3CCN(C(=O)c4ccccc4)CC3)c[nH]c12 [Example 312] | Low (0-0.100) | Yes | < 1000 | 0.2 to 1000 | – | – | – | – | –
COc1cnc(-n2ccnn2)c2[nH]cc(C(=O)C(=O)N3CCN(C(=O)c4ccccc4)[C@H](C)C3)c12 [Example 255, (R)-1-benzoyl-2-methyl-4-[(4-methoxy-7-(1,2,3-triazol-1-yl)-6-azaindol-3-yl)-oxoacetyl]piperazine] | Intermediate (0.101-0.200) | Yes | – | < 0.2 | < 1000 | – | – | – | –
Cn1ccc(-c2ncc(F)c3c(C(=O)C(=O)N4CCN(C(=O)c5ccccc5)CC4)c[nH]c23)n1 [Example 29, 1-benzoyl-4-[(4-fluoro-7-(1-methyl-pyrazol-3-yl)-6-azaindol-3-yl)-oxoacetyl]piperazine] | High (0.201-0.300) | No | < 1000 | 0.2 to 1000 | – | – | – | – | –
Cc1ccn(-c2ccnc3c(C(=O)C(=O)N4CCN(C(=O)c5ccccc5)[C@H](C)C4)c[nH]c23)n1 [Example 356] | Low (0-0.100) | Yes | – | 0.2 to 1000 | – | < 1000 | – | – | –
COc1cnc(-c2nc(C)n[nH]2)c2[nH]cc(C(=O)C(=O)N3CCN(C(=O)c4ccccc4)CC3)c12 [Example 342] | Low (0-0.100) | Yes | < 1000 | < 0.2 | – | – | – | – | –
CNC(=O)c1cc(-c2ncc(F)c3c(C(=O)C(=O)N4CCN(C(=O)c5ccccc5)CC4)c[nH]c23)n[nH]1 [Example 211] | Intermediate (0.101-0.200) | – | < 1000 | < 0.2 | – | – | – | – | –
COc1cnc(-n2ncc(C)n2)c2[nH]cc(C(=O)C(=O)N3CCN(C(=O)c4ccccc4)[C@H](C)C3)c12 [Example 328] | – | – | – | – | < 1000 | – | Low (0-0.100) | Yes | < 0.2
Nc1ncn(-c2ncc(F)c3c(C(=O)C(=O)N4CCN(C(=O)c5ccccc5)CC4)c[nH]c23)n1 [Example 313] | Low (0-0.100) | Yes | < 1000 | < 0.2 | – | – | – | – | –
CCc1ncn(-c2ncc(OC)c3c(C(=O)C(=O)N4CCN(C(=O)c5ccccc5)CC4)c[nH]c23)n1 [Example 321] | Low (0-0.100) | Yes | < 1000 | < 0.2 | – | – | – | – | –
COc1cnc(-n2ccc(C)n2)c2[nH]cc(C(=O)C(=O)N3CCN(C(=O)c4ccccc4)[C@H](C)C3)c12 [Example 241, (R)-1-benzoyl-2-methyl-4-[(4-methoxy-7-(3-methyl-pyrazol-1-yl)-6-azaindol-3-yl)-oxoacetyl]piperazine] | Low (0-0.100) | Yes | – | < 0.2 | < 1000 | – | – | – | –
O=C(C(=O)N1CCN(C(=O)c2ccccc2)CC1)c1c[nH]c2c(N3CCCC3)ncc(F)c12 [Example 221] | Low (0-0.100) | Yes | < 1000 | 0.2 to 1000 | – | – | – | – | –
O=C(C(=O)N1CCN(C(=O)c2ccccc2)CC1)c1c[nH]c2c(-c3ncco3)ncc(F)c12 [Example 140] | Intermediate (0.101-0.200) | Yes | < 1000 | 0.2 to 1000 | – | – | – | – | –
COc1cnc(-c2cc[nH]n2)c2[nH]cc(C(=O)C(=O)N3CCN(C(=O)c4ccccc4)CC3)c12 [Example 39, 1-benzoyl-4-[(4-methoxy-7-(pyrazol-3-yl)-6-azaindol-3-yl)-oxoacetyl]piperazine] | Intermediate (0.101-0.200) | No | < 1000 | 0.2 to 1000 | – | – | – | – | –
CCNC(=O)c1ncn(-c2ncc(OC)c3c(C(=O)C(=O)N4CCN(C(=O)c5ccccc5)CC4)c[nH]c23)n1 [Example 273, 1-benzoyl-4-[(4-methoxy-7-(3-ethylaminocarbonyl-1,2,4-triazol-1-yl)-6-azaindol-3-yl)-oxoacetyl]piperazine] | Low (0-0.100) | Yes | < 1000 | < 0.2 | – | – | – | – | –
O=C(C(=O)N1CCN(C(=O)c2ccccc2)CC1)c1c[nH]c2c(-c3c[nH]nn3)ncc(F)c12 [Example 299] | Low (0-0.100) | No | < 1000 | < 0.2 | – | – | – | – | –
O=C(C(=O)N1CCN(C(=O)c2ccccc2)CC1)c1c[nH]c2c(-c3cc[nH]n3)ncc(F)c12 [Example 38, 1-benzoyl-4-[(4-fluoro-7-(pyrazol-3-yl)-6-azaindol-3-yl)-oxoacetyl]piperazine] | Low (0-0.100) | – | < 1000 | < 0.2 | – | – | – | – | –
COc1cnc(-c2ncco2)c2[nH]cc(C(=O)C(=O)N3CCN(C(=O)c4ccccc4)CC3)c12 [Example 74, 1-benzoyl-4-[(4-methoxy-7-(oxazol-2-yl)-6-azaindol-3-yl)-oxoacetyl]piperazine] | Intermediate (0.101-0.200) | No | < 1000 | 0.2 to 1000 | – | – | – | – | –
COc1cnc(-n2cnc(C)c2)c2[nH]cc(C(=O)C(=O)N3CCN(C(=O)c4ccccc4)CC3)c12 [Example 318] | Low (0-0.100) | Yes | < 1000 | 0.2 to 1000 | – | – | – | – | –
CN(C)C(=O)c1cc(-c2ncc(F)c3c(C(=O)C(=O)N4CCN(C(=O)c5ccccc5)CC4)c[nH]c23)n[nH]1 [Example 212] | Low (0-0.100) | – | < 1000 | < 0.2 | – | – | – | – | –
O=C(C(=O)N1CCN(C(=O)c2ccccc2)CC1)c1c[nH]c2c(-c3cnccn3)ncc(F)c12 [Example 95, 1-benzoyl-4-[(4-fluoro-7-(pyrazin-2-yl)-6-azaindol-3-yl)-oxoacetyl]piperazine] | Intermediate (0.101-0.200) | – | < 1000 | < 0.2 | – | – | – | – | –
